Experimental data as given in US5688767A, “Treatment of endotoxin-associated disorders with cationic peptides” (priority 1996, dated 1997).

How the values were obtained:
[1] = tested on: LPS-induced circulating TNF; test: Circulating TNF response to LPS in galactosamine-sensitized mice; type: in vivo
Method: With a challenge dose of 10 μg or E. coli 0111:B4 LPS, 100% of control mice (i.e., no cationic peptide) were killed. […] Consistent with its improved ability to bind LPS, CEMA was more protective resulting in 60%, 75%, and 78% survival when given to mice at doses of 50 μg, 100 μg, and 200 μg respectively. […] Thirty minutes later, the mice were sacrificed and the blood was taken and centrifuged to separate the serum which was used in the cell cytotoxic L929 assay. […] Such suppression of TNF levels in the animals injected with Dgal, CEMA, and LPS was maintained for up to 2 hours.
TNF was measured in cell culture supernatants and mouse serum on the basis of cytoxicity for L929 fibroblast cell. […] TNF activity was expressed in units as the reciprocal of the dilution of TNF that caused 50% cytotoxicity of L929 cells, as computed using the ELISA+program (Meddata, Inc., New York, N.Y.). In our hands one unit of TNF corresponded to 62.5 pg/ml of recombinant murine TNF (Genzyme Corp.).
Mice are naturally resistant to LPS. […] Endotoxic shock was induced by intraperitoneal injection of 10 or 20 μg of E. coli 0111:B4 LPS in phosphate-buffered saline (PBS), pH 7.2 into galactosamine-sensitized 8-10 week old female CD-1 mice (Galanos, C., supra; Freudenberg, M. A., Inf. Immun., 51:891, 1986). In experiments involving peptides, 50-200 μg in 100 μl sterile water injected at separate intraperitoneal sites immediately before or after LPS injection. In survival experiments, survival was monitored at 24 to 48 hours post injection. In experiments measuring TNF, blood was withdrawn by cardiac puncture at timed intervals up to 8 hours after the injections and allowed to clot prior to measurement of TNF in the serum.
To examine if the peptides were exerting their effects in animals by suppressing TNF induction, TNF was followed in response to injection of 10 μg of E. Coli 0111:B4 into galactosamine treated CD-1 mice. […] At the time points shown, blood was taken and TNF measured in the L929 cytotoxicity assay. […]

[2] = Lethality of peptide alone in mice; type: in vivo

With `CC[C@H](C)[C@H](NC(=O)CNC(=O)[C@@H](NC(=O)[C@H](CCCCN)NC(=O)[C@H](CCCCN)NC(=O)[C@H](Cc1ccccc1)NC(=O)[C@H](CC(C)C)NC(=O)[C@H](CCCCN)NC(=O)[C@H](Cc1c[nH]c2ccccc12)NC(=O)[C@@H](N)CCCCN)[C@@H](C)CC)C(=O)NCC(=O)N[C@@H](C)C(=O)N[C@H](C(=O)N[C@@H](CC(C)C)C(=O)N[C@@H](CCCCN)C(=O)N[C@H](C(=O)N[C@@H](CC(C)C)C(=O)N[C@H](C(=O)N[C@H](C(=O)NCC(=O)N[C@@H](CC(C)C)C(=O)N1CCC[C@H]1C(=O)N[C@@H](C)C(=O)N[C@@H](CC(C)C)C(=O)N[C@@H](CCCCN)C(=O)N[C@@H](CC(C)C)C(=O)N[C@H](C(=O)N[C@@H](CCCCN)C(=O)O)[C@@H](C)O)[C@@H](C)O)[C@@H](C)O)C(C)C)C(C)C` [CEMA] the “reduction of serum TNF levels” value ([1]; 200 μg CEMA injected immediately after 10 μg E. coli 0111:B4 LPS) was 89%, the “blood levels of TNF” value ([1]; 200 μg CEMA with 10 μg LPS and Dgal, at 30 minutes) was 11-16 U/ml and the “duration of suppression of TNF levels” value ([1]; animals injected with Dgal, CEMA, and LPS) was “up to 2 hours”. For the same compound, the “survival of mice given peptide alone” value ([2]; 200 μg (8.7 mg/kg) alone) was “survived”, the “% Mortality” value ([2]; no LPS, peptide 200 ug) was 0% and the dead/total ([2]; no LPS, peptide 200 ug) was 0/5.
